How the values were obtained:
ARPE-19 cells [1] = test: CellTiter-Glo assay (ATP); format: cell-based, human; details: 1 mM pretreatment, then 500 μM HQ for 3, 6 and 8 hours
Method: ARPE-19 cells were grown in white 96 well plates. The cells were first exposed to 500 μM of HQ for 3, 6 and 8 hours and the amount of ATP produced was measured using the CellTiter-Glo assay kit to obtain a time dependent response (FIG. 15). […] Due to the mitochondrial damage caused by HQ, the production of ATP was decreased.

ARPE-19 cells [2] = test: JC-1 assay (mitochondrial membrane potential); format: cell-based, human; details: 1 mM pretreatment for 1 hour, then 50 μM HQ for 4 hours
Method: JC-1 assays measuring the change in mitochondrial membrane potential were carried out to evaluate the protection of the NAC alkyl-ester analogues towards mitochondrial damage.
Typically, JC-1 dye has an inherent green fluorescence at 530 nm. Upon reaching the cell, due to the structural properties of the dye, it will accumulate in the mitochondria making aggregates known as J-aggregates. These J-aggregates consists of a red shifted fluorescence (590 nm). Damaged or unhealthy mitochondria, due to their depolarized membrane potential (compared to healthy ones), will have lesser amounts of aggregates and thus will have low intensity of red emission. Cells with healthy mitochondria will have a more prominent red fluorescence than that in cells with damaged/unhealthy mitochondria due to the ability in forming J-aggregates.
ARPE-19 cells were grown in black, clear bottom 96 well plates. […] With increasing time and dose of HQ, a drop in 590 nm/530 nm fluorescence is seen due to the depolarization of the mitochondria.
Next, to assess the effect of NAC alkyl-ester analogues on oxidative damage in mitochondria (FIG. 12B), ARPE-19 cells were pretreated with 1 mM NAC, NAC alkyl-ester analogues, NACA, GSH-EE and 1 μM MitoQ for 1 and 24 hours. […] The JC-1 solution was removed and washed once with PBS and fluorescence measurements were obtained in PBS at 485 nm excitation and emission at 535 nm and 590 nm. […]

ARPE-19 cells [3] = test: JC-1 staining (confocal); details: 1 mM pretreatment for 24 hours, then 50 μM HQ for 4 hours
Source text: The cells were imaged on the confocal (Zeiss LSM 800) by excitation with the 488 nm laser and emission imaged at 530 nm (green channel) and 590 nm (red channel).

[4] = test system: mitochondria isolated from ARPE-19 cells; test: Mitochondrial GSH assay; format: cell-based, human; details: 1 mM for 24 hours; compared to NAC and ARPE-19 cells
Method: A GSH assay was carried out for isolated mitochondria to study the mechanism of action of the NAC alkyl-ester analogues in protecting mitochondria. ARPE-19 cells were grown in 6 well plates until 100% confluent in MEM-NIC media. The cells were exposed to 3 mL of 1 mM solutions of NAC and NACBE for 24 hours. The solutions were removed and washed with 3 mL of HBSS before adding 1 mL of 0.25% Trypsin-EDTA and incubating for 10 minutes. 2 mL of DMEM:F-12 supplemented with 10% FBS was added to each well, harvested and centrifuged at 300 rcf for 5 minutes. The supernatant was removed and cell pellet was resuspended in 2 mL of isolation buffer (0.25 M sucrose and 10 mM HEPES).
Cells were disrupted using a probe sonicator (Misonix 5-3000) for 10 seconds in ice. Subsequently, intact cells and debris were removed by centrifuging at 1000 g for 10 mins. Supernatant was collected, and centrifuged at 20,000 g for 25 minutes. Pellet containing mitochondria were saved and washed using 0.5 mL of isolation buffer. After centrifuging at 20,000 g for 25 minutes the mitochondrial pellet was resuspended in 50 μL of HBSS. 25 μL was used to determine total GSH and GSSG and 25 μL was used to determine GSSG levels. GSH assay was then carried out according to manufacturer recommended protocol (Promega GSH/GSSG-Glo™) and luminescence readings were obtained.

CCCCOC(=O)[C@H](CS)NC(C)=O [NACBE, N-acetylcysteine butyl ester]
ATP production after HQ insult (ARPE-19 cells [1]): ATP production remained unaltered
protection towards mitochondrial damage (JC-1) (ARPE-19 cells [2]): improved protection towards mitochondrial damage
mitochondrial membrane potential after HQ (JC-1 staining) (ARPE-19 cells [3]): preserved the mitochondrial membrane potential
mitochondrial GSH level (luminescence intensity) [4]: increase in the luminescence intensity
